Source: patent US20200368315A1, “ANTIMICROBIAL PEPTIDES AND ADMIXTURES THEREOF SHOWING ANTIMICROBIAL ACTIVITY AGAINST GRAM-NEGATIVE PATHOGENS” (priority 2017, published 2020)
Values after ≈ are worked out from the molar mass of the structure shown. Read-outs that look alike come from different tables or passages of the source. Non-standard residues stand in square brackets, D forms with d. Residues, ends and D or L forms follow the SMILES beside them. No end group written: not given here.

What was measured:
K. pneumoniae LMG20218 [1] = assay type: cell-based, Klebsiella pneumoniae; conditions: for MICb: MIC of GNP alone
Description: (§1) The test of synergistic effect was processed by conducting standard chequerboard broth microdilution assays. Nisin (Drug X) was loaded two fold serially diluted from row 1 to 10 in X-axis while GNPs (Drug Y) were loaded in eight two fold serially diluted concentrations from line A to H in Y-axis (FIG. 1). The original concentrations of peptides were MICs of each. Row 11 are used as growth control with no peptide was included, while row 12 with MHB medium-only wells was included as a sterility control as referred before. 50 uL fresh bacterial suspension was added to well 1-11 and final volume of each well on the plate is 100 uL.
(§2) To determine whether the combination therapy is additive, synergistic or antagonistic, fractional inhibitory concentration (FIC) indices were calculated. FICI=FICa+FICb=MICac/MICa+MICbc/MICb. The MICa/MICb is the MIC of compound A/B alone. MICac is the MIC of compound A in combination with compound B and MICbc is the MIC of compound B when it was combination with compound A. […]. FICa is FIC of compound A while FICb is FIC of compound B. The FICI is interpreted as follows: synergistic, FICI≤0.5; additive, 0.5<FICI<1; indifferent, 1<FICI<2; antagonistic, FICI>2.

P. aeruginosa LMG 6395 [2] = assay type: cell-based, Pseudomonas aeruginosa; conditions: for MICb: MIC of GNP alone; for MICbc: MIC of GNP when used with the MICac concentration of nisin; for MICac: MIC of nisin in combination with the GNP at the MICbc concentration
Description: as §1, §2

E. coli LMG15862 [3] = assay type: cell-based, Escherichia coli; conditions: for MICb: MIC of GNP alone; for MICbc: MIC of GNP when used with the MICac concentration of nisin; for MICac: MIC of nisin in combination with the GNP at the MICbc concentration
Description: as §1, §2

A. baumannii LMG01041 [4] = assay type: cell-based, Acinetobacter baumannii; conditions: for MICb: MIC of GNP alone
Description: as §1, §2

E. aerogenes LMG 02094 [5] = assay type: cell-based, Enterobacter aerogenes; conditions: for MICb: MIC of GNP alone
Description: as §1, §2

E. aerogenes LMG 02094 [6] = conditions: for MICb: MIC of GNP alone
Experimental: (§3) The test of synergistic effect was processed by conducting standard chequerboard broth microdilution assays. […] Row 11 are used as growth control with no peptide was included, while row 12 with MHB medium-only wells was included as a sterility control as referred before. 50 uL fresh bacterial suspension was added to well 1-11 and final volume of each well on the plate is 100 uL.
(§4) The test of synergistic effect was processed as method 1.4.
as §2

P. aeruginosa LMG 6395 [7] = conditions: for MICb: MIC of GNP alone; for MICbc: MIC of GNP in combination with vancomycin at the MICac concentration; for MICac: MIC of vancomycin in combination with the GNP at the MICbc concentration
Experimental: as §3, §4, §2

E. coli LMG15862 [8] = conditions: for MICb: MIC of GNP alone; for MICbc: MIC of GNP in combination with vancomycin at the MICac concentration; for MICac: MIC of vancomycin in combination with the GNP at the MICbc concentration
Experimental: as §3, §4, §2

K. pneumoniae LMG20218 [9] = conditions: for MICb: MIC of GNP alone
Experimental: as §3, §4, §2

A. baumannii LMG01041 [10] = conditions: for MICb: MIC of GNP alone
Experimental: as §3, §4, §2

P. aeruginosa LMG 6395 [11] = experiment: microbe, parasite or virus in culture; assay type: cell-based, Pseudomonas aeruginosa
Experimental: (§5) Escherichia coli, Klebsiella pneumoniae, Pseudomonas aeruginosa, Acinetobacter baumannii, Enterobacter aerogenes were grown in Luria-Bertani (LB) broth shaken (200 rpm) or on LB agar at 37° C. […] MICs tests were performed in duplicate by a liquid growth inhibition microdilution assays in sterilized polypropylene microtiter plates according to Wiegand and […] [27]. […] The suspension was diluted in a ratio of 1:100 using Mueller Hinton Broth (MHB) and the final inoculum is 5*10^5 CFU/mL. […] The antimicrobials were diluted serially by 1/2 one by one and 50 uL diluted bacterial suspension were added to each well to make the final volume to be 100 uL. Growth control was accomplished by remove 10 uL from well 11 and dilute 1000 times to plate 1/10 suspension on the solid medium. […] The number of colonies on the control agar plate should be around 50 to ensure the concentration of the inoculum and the effectiveness of the experiment. The lowest concentration of the antimicrobials that inhibits visible growth of the indicator is identified as MIC.

K. pneumoniae LMG20218 [12] = experiment: microbe, parasite or virus in culture; assay type: cell-based, Klebsiella pneumoniae
Experimental: as §5

A. baumannii LMG01041 [13] = experiment: microbe, parasite or virus in culture; assay type: cell-based, Acinetobacter baumannii
Experimental: as §5

E. coli LMG15862 [14] = experiment: microbe, parasite or virus in culture; assay type: cell-based, Escherichia coli; conditions: for MICb (GNP concentration when used alone): L-form GNP, Table 6
Experimental: as §5

E. aerogenes LMG 02094 [15] = experiment: microbe, parasite or virus in culture; assay type: cell-based, Enterobacter aerogenes
Experimental: as §5

[16] = MIC of GNP when used with the MICac concentration of nisin
[17] = MIC of nisin in combination with the GNP at the MICbc concentration
[18] = MIC of GNP in combination with vancomycin at the MICac concentration
[19] = MIC of vancomycin in combination with the GNP at the MICbc concentration

Compound | MICb (K. pneumoniae LMG20218 [1]) | MICb (P. aeruginosa LMG 6395 [2]) | MICbc (P. aeruginosa LMG 6395 [2]) | MICac (P. aeruginosa LMG 6395 [2]) | MICb (E. coli LMG15862 [3]) | MICbc (E. coli LMG15862 [3]) | MICac (E. coli LMG15862 [3]) | MICb (A. baumannii LMG01041 [4]) | MICb (E. aerogenes LMG 02094 [5]) | MICb (E. aerogenes LMG 02094 [6]) | MICb (P. aeruginosa LMG 6395 [7]) | MICbc (P. aeruginosa LMG 6395 [7]) | MICac (P. aeruginosa LMG 6395 [7]) | MICb (E. coli LMG15862 [8]) | MICbc (E. coli LMG15862 [8]) | MICac (E. coli LMG15862 [8]) | MICb (K. pneumoniae LMG20218 [9]) | MICb (A. baumannii LMG01041 [10]) | MICb (MIC of GNP alone) (P. aeruginosa LMG 6395 [11]; LMG 6395) | MICb (MIC of GNP alone) (K. pneumoniae LMG20218 [12]; LMG20218) | further results
RIRKRIKKWLR-NH2 [GNP8-4] | >256 µM | 16 µM | 4 µM | 2.25 µM | 16 µM | 2 µM | 3 µM | >256 µM | >256 µM | >256 µM | 16 µM | 8 µM | 4 µM | 16 µM | 2 µM | 4 µM | >256 µM | >256 µM |  |  | 
GIGKHVGKALKGLKGLLKGLGEC [GNP-7] |  |  |  |  |  |  |  |  |  |  |  |  |  |  |  |  |  |  | 13 µM | 12 µM | MICb (MIC of GNP alone) (A. baumannii LMG01041 [13]; LMG01041): 2 µM; MICb (GNP concentration when used alone) (E. coli LMG15862 [14]; E. coli LMG15862): 6 µM; MICb (MIC of GNP alone) (E. aerogenes LMG 02094 [15]; LMG 02094): 8 µM
GNNRPVYIPQPRPPHPRL [GNP-1] |  |  |  |  |  |  |  |  |  |  |  |  |  |  |  |  |  |  | >64 µM | 5 µM | MICb (MIC of GNP alone) (A. baumannii LMG01041 [13]; LMG01041): >64 µM; MICb (GNP concentration when used alone) (E. coli LMG15862 [14]; E. coli LMG15862): 0.5 µM; MICb (MIC of GNP alone) (E. aerogenes LMG 02094 [15]; LMG 02094): 8 µM
RIVQRIKKWR-NH2 [GNP8-6] | >256 µM | >256 µM |  |  | 256 µM | 64 µM | 6 µM | >256 µM | >256 µM | >256 µM | >256 µM |  |  | 256 µM | 16 µM | 8 µM | >256 µM | >256 µM |  |  | 
KIVQRIKKWLR-NH2 [GNP8-2] | 32 µM | 16 µM | 4 µM | 4.5 µM | 16 µM | 2 µM | 1.5 µM | 128 µM | 256 µM | 256 µM | 16 µM | 2 µM | 16 µM | 16 µM | 2 µM | 4 µM | 32 µM | 128 µM |  |  | MICbc (K. pneumoniae LMG20218 [1]; [16]): 2 µM; MICac (K. pneumoniae LMG20218 [1]; [17]): 0.75 µM; MICbc (A. baumannii LMG01041 [4]; [16]): 16 µM; MICac (A. baumannii LMG01041 [4]; [17]): 0.375 µM; MICbc (E. aerogenes LMG 02094 [5]; [16]): 1 µM; MICac (E. aerogenes LMG 02094 [5]; [17]): 4 µM; MICbc (E. aerogenes LMG 02094 [6]; [18]): 16 µM; MICac (E. aerogenes LMG 02094 [6]; [19]): 12 µM; MICbc (K. pneumoniae LMG20218 [9]; [18]): 8 µM; MICac (K. pneumoniae LMG20218 [9]; [19]): 16 µM; MICbc (A. baumannii LMG01041 [10]; [18]): 4 µM; MICac (A. baumannii LMG01041 [10]; [19]): 4 µM
CC[C@@H](C)[C@@H](NC(=O)CN)C(=O)NCC(=O)N[C@H](CCCCN)C(=O)N[C@H](Cc1c[nH]cn1)C(=O)N[C@@H](C(=O)NCC(=O)N[C@H](CCCCN)C(=O)N[C@H](C)C(=O)N[C@H](CC(C)C)C(=O)N[C@H](CCCCN)C(=O)NCC(=O)N[C@H](CC(C)C)C(=O)N[C@H](CCCCN)C(=O)NCC(=O)N[C@H](CC(C)C)C(=O)N[C@H](CC(C)C)C(=O)N[C@H](CCCCN)C(=O)NCC(=O)N[C@H](CC(C)C)C(=O)NCC(=O)N[C@H](CCC(=O)O)C(=O)N[C@H](CS)C(=O)O)C(C)C [GNP-D7] (H-G[dI]G[dK][dH][dV]G[dK][dA][dL][dK]G[dL][dK]G[dL][dL][dK]G[dL]G[dE][dC]-OH; N-terminus and C-terminus assumed) |  |  |  |  |  |  |  |  |  |  |  |  |  |  |  |  |  |  |  |  | MICb (MIC of GNP alone) (P. aeruginosa LMG 6395 [11]; D form GNP, P. aeruginosa LMG 6395, Table 9): 4 µM; MIC value (P. aeruginosa LMG 6395 [11]; LMG 6395): 4 µM (≈ 9.11 µg/mL); MICb (MIC of GNP alone) (K. pneumoniae LMG20218 [12]; D form GNP, K. pneumoniae LMG20218, Table 9): 4 µM; MIC value (K. pneumoniae LMG20218 [12]; LMG20218): 4 µM (≈ 9.11 µg/mL); MICb (MIC of GNP alone) (A. baumannii LMG01041 [13]; D form GNP, A. baumannii LMG01041, Table 9): 2 µM; MIC value (A. baumannii LMG01041 [13]; LMG01041): 2 µM (≈ 4.55 µg/mL); MICb (MIC of GNP alone) (E. coli LMG15862 [14]; D form GNP, E. coli LMG15862, Table 9): 2 µM; MIC value (E. coli LMG15862 [14]; LMG15862): 2 µM (≈ 4.55 µg/mL); MICb (MIC of GNP alone) (E. aerogenes LMG 02094 [15]; D form GNP, E. aerogenes LMG 02094, Table 9): 4 µM; MIC value (E. aerogenes LMG 02094 [15]; LMG 02094): 4 µM (≈ 9.11 µg/mL)
